Values after ≈ are worked out from the molar mass of the structure shown.
Columns and labels:
[1] = system: Proteus vulgaris; assay: Antibacterial activity against Proteus vulgaris; type: functional
[2] = system: Staphylococcus aureus; assay: Antibacterial activity against Staphylococcus aureus; type: functional, organism-based
[3] = system: Bacillus subtilis; assay: Antibacterial activity against Bacillus subtilis; type: functional
[4] = system: Klebsiella pneumoniae; assay: Antibacterial activity against Klebsiella pneumoniae; type: functional
[5] = system: Shigella flexneri; assay: Antibacterial activity against Shigella flexneri; type: functional
[6] = system: Streptococcus pyogenes; assay: Antibacterial activity against Streptococcus pyogenes; type: functional
[7] = system: Escherichia coli; assay: Antibacterial activity against Escherichia coli ATCC 25922 after 24 hrs by agar well diffusion technique; type: functional; conditions: ATCC 25922, 24 h
[8] = system: Shigella dysenteriae; assay: Potency index, ratio of MIC for sulfamethoxazole to MIC for test compound for antibacterial activity against Shigella dysenteriae after 24 hrs by agar well diffusion technique; type: functional
[9] = system: Staphylococcus aureus; assay: Antibacterial activity against Staphylococcus aureus ATCC 25923 after 24 hrs by agar well diffusion technique; type: functional; conditions: ATCC 25923, 24 h
[10] = system: Shigella dysenteriae; assay: Antibacterial activity against Shigella dysenteriae after 24 hrs by agar well diffusion technique; type: functional
[11] = system: Bacillus cereus; assay: Antibacterial activity against Bacillus cereus after 24 hrs by agar well diffusion technique; type: functional
[12] = system: Escherichia coli; assay: In vivo antibacterial activity against Escherichia coli infected in po dosed mouse; type: functional
[13] = system: Pseudomonas aeruginosa; assay: Antibacterial activity against Pseudomonas aeruginosa; type: functional, organism-based
[14] = system: Citrobacter freundii; assay: Antibacterial activity against Citrobacter freundii; type: functional
[15] = system: Staphylococcus epidermidis; assay: Antibacterial activity against Staphylococcus epidermidis; type: functional
[16] = system: Escherichia coli; assay: Antibacterial activity against Escherichia coli; type: functional, organism-based
[17] = system: Vibrio cholerae; assay: Antibacterial activity against Vibrio cholerae; type: functional
[18] = system: Salmonella typhi; assay: Antibacterial activity against Salmonella typhi; type: functional, Salmonella enterica subsp. enterica serovar Typhi; conditions: Salmonella enterica
[19] = system: Bacillus pumilus; assay: Antibacterial activity against Bacillus pumilus; type: functional
[20] = system: Priestia megaterium; assay: Antibacterial activity against Bacillus megaterium; type: functional
[21] = system: Escherichia coli; assay: Potency index, ratio of ED50 for norfloxacin to ED50 for test compound for in vivo antibacterial activity against Escherichia coli infected in po dosed mouse; type: functional
[22] = system: Escherichia coli; assay: Antibacterial activity against Escherichia coli NCTC 10418; type: functional
[23] = Toxicity in po dosed mouse; type: organism-based; conditions: in vivo
[24] = system: Escherichia coli; assay: Antibacterial activity against Escherichia coli assessed as zone of inhibition at 20 mg/ml; type: functional; conditions: read-out: IZ
[25] = system: Staphylococcus aureus; assay: Antibacterial activity against Staphylococcus aureus assessed as zone of inhibition at 20 mg/ml; type: functional; conditions: read-out: IZ
[26] = system: Pseudomonas aeruginosa; assay: Antibacterial activity against Pseudomonas aeruginosa assessed as zone of inhibition at 20 mg/ml; type: functional; conditions: read-out: IZ
[27] = system: Bacillus subtilis; assay: Antibacterial activity against Bacillus subtilis assessed as zone of inhibition at 20 mg/ml; type: functional; conditions: read-out: IZ

CC1(C)S[C@@H]2[C@H](NC(=O)[C@H](N)c3ccccc3)C(=O)N2[C@H]1C(=O)O [AMPICILLIN]
MIC [1]: 0.007 to 1.95 mg/L (≈ 0.02 to 5.58 µM) | MIC [2]: 0.007 to 1.95 mg/L (≈ 0.02 to 5.58 µM) | MIC [3]: 0.007 to 1.95 mg/L (≈ 0.02 to 5.58 µM) | MIC [4]: 0.007 to 1.95 mg/L (≈ 0.02 to 5.58 µM) | MIC [5]: 0.007 to 1.95 mg/L (≈ 0.02 to 5.58 µM) | MIC [6]: 0.007 to 1.95 mg/L (≈ 0.02 to 5.58 µM)

Cc1ccc2c(c1)/C(=N/c1ccc(S(=O)(=O)Nc3cc(C)on3)cc1)C(=O)N2
MIC [7]: 5 mg/L (≈ 12.6 µM) | Ratio [8]: 2.5 | MIC [9]: 5 mg/L (≈ 12.6 µM) | MIC [10]: 1 mg/L (≈ 2.52 µM) | MIC [11]: 5 mg/L (≈ 12.6 µM)

O=C1Nc2ccc(S(=O)(=O)N3CCOCC3)cc2C1=O
MIC [1]: 0.007 to 0.49 mg/L (≈ 0.0236 to 1.65 µM) | MIC [2]: 0.007 to 0.49 mg/L (≈ 0.0236 to 1.65 µM) | MIC [3]: 0.007 to 0.49 mg/L (≈ 0.0236 to 1.65 µM) | MIC [4]: 0.007 to 0.49 mg/L (≈ 0.0236 to 1.65 µM) | MIC [5]: 0.007 to 0.49 mg/L (≈ 0.0236 to 1.65 µM) | MIC [6]: 0.007 to 0.49 mg/L (≈ 0.0236 to 1.65 µM)

CCn1cc(C(=O)O)c(=O)c2cc(F)c(N3CCNCC3)cc21 [NORFLOXACIN]
ED50 [12]: 6 mg/kg

CCn1cc(C(=O)O)c(=O)c2cc(F)c(N3CCNC(C)C3)c(F)c21 (stereo unspecified) [LOMEFLOXACIN]
MIC [13]: 0.25 to 2.5 mg/L (≈ 0.712 to 7.12 µM) | MIC [14]: 0.25 to 2.5 mg/L (≈ 0.712 to 7.12 µM) | MIC [15]: 0.25 to 2.5 mg/L (≈ 0.712 to 7.12 µM) | MIC [2]: 0.25 to 2.5 mg/L (≈ 0.712 to 7.12 µM) | MIC [16]: 0.25 to 2.5 mg/L (≈ 0.712 to 7.12 µM) | MIC [4]: 0.25 to 2.5 mg/L (≈ 0.712 to 7.12 µM) | MIC [17]: 0.25 to 2.5 mg/L (≈ 0.712 to 7.12 µM) | MIC [18]: 0.25 to 2.5 mg/L (≈ 0.712 to 7.12 µM) | MIC [5]: 0.25 to 2.5 mg/L (≈ 0.712 to 7.12 µM)

O=C1C(=O)N(CN2CCN(c3cc4c(cc3F)c(=O)c(C(=O)O)cn4C3CC3)CC2)c2ccccc21
MIC [13]: 0.1 to 0.5 mg/L (≈ 0.204 to 1.02 µM) | MIC [14]: 0.1 to 0.5 mg/L (≈ 0.204 to 1.02 µM) | MIC [15]: 0.1 to 0.5 mg/L (≈ 0.204 to 1.02 µM) | MIC [2]: 0.1 to 0.5 mg/L (≈ 0.204 to 1.02 µM) | MIC [16]: 0.1 to 0.5 mg/L (≈ 0.204 to 1.02 µM) | MIC [4]: 0.1 to 0.5 mg/L (≈ 0.204 to 1.02 µM) | MIC [17]: 0.1 to 0.5 mg/L (≈ 0.204 to 1.02 µM) | MIC [18]: 0.1 to 0.5 mg/L (≈ 0.204 to 1.02 µM) | MIC [5]: 0.1 to 0.5 mg/L (≈ 0.204 to 1.02 µM)

N[C@@H](C(=O)N[C@@H]1C(=O)N2C(C(=O)O)=C(Cl)CS[C@H]12)c1ccccc1 [CEFACLOR ANHYDROUS]
MIC [13]: 2 to 8 mg/L (≈ 5.44 to 21.8 µM) | MIC [19]: 2 to 8 mg/L (≈ 5.44 to 21.8 µM) | MIC [15]: 2 to 8 mg/L (≈ 5.44 to 21.8 µM) | MIC [2]: 2 to 8 mg/L (≈ 5.44 to 21.8 µM) | MIC [20]: 2 to 8 mg/L (≈ 5.44 to 21.8 µM)

CCn1cc(C(=O)O)c(=O)c2cc(F)c(N3CCN(CN4C(=O)/C(=N\c5ccc(S(=O)(=O)Nc6ncnc(OC)c6OC)cc5)c5ccccc54)CC3)cc21
Ratio ED50 [21]: >3.7 | MIC [22]: < 1 mg/L | LD50 [23]: > 4000 mg/kg | ED50 [12]: 1.25 mg/kg

Cc1ccc2c(c1)C(=O)C(=O)N2CN1CCN(c2cc3c(cc2F)c(=O)c(C(=O)O)cn3C2CC2)CC1
MIC [13]: 0.1 to 0.5 mg/L (≈ 0.198 to 0.991 µM) | MIC [14]: 0.1 to 0.5 mg/L (≈ 0.198 to 0.991 µM) | MIC [15]: 0.1 to 0.5 mg/L (≈ 0.198 to 0.991 µM) | MIC [2]: 0.1 to 0.5 mg/L (≈ 0.198 to 0.991 µM) | MIC [16]: 0.1 to 0.5 mg/L (≈ 0.198 to 0.991 µM) | MIC [4]: 0.1 to 0.5 mg/L (≈ 0.198 to 0.991 µM) | MIC [17]: 0.1 to 0.5 mg/L (≈ 0.198 to 0.991 µM) | MIC [18]: 0.1 to 0.5 mg/L (≈ 0.198 to 0.991 µM) | MIC [5]: 0.1 to 0.5 mg/L (≈ 0.198 to 0.991 µM)

CCn1cc(C(=O)O)c(=O)c2cc(F)c(N3CCN(CN4C(=O)/C(=N\c5ncc(Cc6cc(OC)c(OC)c(OC)c6)c(N)n5)c5cc(Br)ccc54)CC3)cc21
Ratio ED50 [21]: >3.7 | MIC [22]: < 1 mg/L

CC(=O)NC[C@H]1CN(c2ccc(N3CCOCC3)c(F)c2)C(=O)O1 [LINEZOLID]
MIC [13]: 4 to 8 mg/L (≈ 11.9 to 23.7 µM) | MIC [19]: 4 to 8 mg/L (≈ 11.9 to 23.7 µM) | MIC [15]: 4 to 8 mg/L (≈ 11.9 to 23.7 µM) | MIC [2]: 4 to 8 mg/L (≈ 11.9 to 23.7 µM) | MIC [20]: 4 to 8 mg/L (≈ 11.9 to 23.7 µM)

CCOC(=O)CN1C(=O)/C(=C2\SC(=S)N(CC(=O)N(c3oc(NC(C)(C)C)c(C(=O)OCC)c3C(=O)OCC)C(C)(C)C)C2=O)c2ccccc21
zone of inhibition at 20000 µg/mL [24]: 15.6 to 26 mm | zone of inhibition at 20000 µg/mL [25]: 15.6 to 26 mm | zone of inhibition at 20000 µg/mL [26]: 15.6 to 26 mm | zone of inhibition at 20000 µg/mL [27]: 15.6 to 26 mm

CC1S/C(=N/N=C2\C(=O)Nc3ccc(S(=O)(=O)N4CCOCC4)cc32)N(c2ccccc2)C1=O (stereo unspecified)
MIC [1]: 0.03 to 3.9 mg/L (≈ 0.0601 to 7.81 µM) | MIC [2]: 0.03 to 3.9 mg/L (≈ 0.0601 to 7.81 µM) | MIC [3]: 0.03 to 3.9 mg/L (≈ 0.0601 to 7.81 µM) | MIC [4]: 0.03 to 3.9 mg/L (≈ 0.0601 to 7.81 µM) | MIC [5]: 0.03 to 3.9 mg/L (≈ 0.0601 to 7.81 µM) | MIC [6]: 0.03 to 3.9 mg/L (≈ 0.0601 to 7.81 µM)

From ChEMBL document CHEMBL4613208, “Isatin derivatives and their anti-bacterial activities” (Eur J Med Chem, 2019)
